Assay results reported in the NIST ThermoML archive (doi:10.1021/je060271a).

Details: Liquid, Vibrating tube method

CCCCCCCC(=O)OCC(COC(=O)CCCCCCC)(COC(=O)CCCCCCC)COC(=O)CCCCCCC [pentaerythritol tetraoctanoate]
Details | mass density [kg/m3]
283.15 K, 29618 kPa | 986.1
283.15 K, 29659 kPa | 986
283.15 K, 29698 kPa | 986.2
283.15 K, 29736 kPa | 986.1
283.15 K, 29782 kPa | 986.2
283.15 K, 29821 kPa | 986.2
283.15 K, 29859 kPa | 986.3
283.15 K, 29906 kPa | 986.3
283.15 K, 29946 kPa | 986.3
283.15 K, 29992 kPa | 986.4
283.15 K, 30032 kPa | 986.4
283.15 K, 30071 kPa | 986.3
283.15 K, 30118 kPa | 986.4
283.15 K, 30158 kPa | 986.4
283.15 K, 30201 kPa | 986.4
283.15 K, 30242 kPa | 986.5
283.15 K, 30289 kPa | 986.4
283.15 K, 30330 kPa | 986.5
283.15 K, 30370 kPa | 986.4
283.15 K, 30418 kPa | 986.5
283.15 K, 30459 kPa | 986.5
283.15 K, 30500 kPa | 986.6
283.15 K, 30549 kPa | 986.6
283.15 K, 30590 kPa | 986.6
283.15 K, 30631 kPa | 986.6
283.15 K, 30673 kPa | 986.6
283.15 K, 30724 kPa | 986.6
283.15 K, 30766 kPa | 986.7
283.15 K, 30808 kPa | 986.8
283.15 K, 30850 kPa | 986.6
283.15 K, 30900 kPa | 986.7
283.15 K, 30942 kPa | 986.8
283.15 K, 30985 kPa | 986.9
283.15 K, 31036 kPa | 986.8
283.15 K, 31079 kPa | 986.8
283.15 K, 31123 kPa | 986.8
283.15 K, 31174 kPa | 986.8
283.15 K, 31217 kPa | 986.9
283.15 K, 31260 kPa | 986.9
283.15 K, 31312 kPa | 987
283.15 K, 31356 kPa | 987.1
283.15 K, 31399 kPa | 987
283.15 K, 31451 kPa | 987.1
283.15 K, 31495 kPa | 987.1
283.15 K, 31539 kPa | 987
283.15 K, 31584 kPa | 987
283.15 K, 31637 kPa | 987.1
283.15 K, 31682 kPa | 987.2
283.15 K, 31727 kPa | 987.1
283.15 K, 31781 kPa | 987.2
283.15 K, 31826 kPa | 987.2
283.15 K, 31872 kPa | 987.1
283.15 K, 31928 kPa | 987.2
283.15 K, 31976 kPa | 987.3
283.15 K, 32024 kPa | 987.3
283.15 K, 32078 kPa | 987.3
283.15 K, 32117 kPa | 987.3
283.15 K, 32155 kPa | 987.4
283.15 K, 32186 kPa | 987.4
283.15 K, 32232 kPa | 987.5
283.15 K, 32279 kPa | 987.3
283.15 K, 32317 kPa | 987.5
283.15 K, 32364 kPa | 987.6
283.15 K, 32402 kPa | 987.5
283.15 K, 32442 kPa | 987.6
283.15 K, 32488 kPa | 987.5
283.15 K, 32528 kPa | 987.5
283.15 K, 32567 kPa | 987.6
283.15 K, 32614 kPa | 987.6
283.15 K, 32653 kPa | 987.6
283.15 K, 32700 kPa | 987.7
283.15 K, 32740 kPa | 987.6
283.15 K, 32779 kPa | 987.7
283.15 K, 32819 kPa | 987.7
283.15 K, 32868 kPa | 987.8
283.15 K, 32908 kPa | 987.7
283.15 K, 32947 kPa | 987.7
283.15 K, 32996 kPa | 987.9
283.15 K, 33037 kPa | 987.8
283.15 K, 33127 kPa | 987.8
283.15 K, 33168 kPa | 987.9
283.15 K, 33209 kPa | 987.9
283.15 K, 33260 kPa | 987.8
283.15 K, 33301 kPa | 987.9
283.15 K, 33344 kPa | 988
283.15 K, 33396 kPa | 988
283.15 K, 33439 kPa | 988
283.15 K, 33492 kPa | 988.1
283.15 K, 33538 kPa | 988
283.15 K, 33585 kPa | 988.1
283.15 K, 33636 kPa | 988.2
283.15 K, 33684 kPa | 988.1
283.15 K, 33728 kPa | 988.1
283.15 K, 33754 kPa | 988.1
283.15 K, 33776 kPa | 988.2
283.15 K, 33797 kPa | 988.2
283.15 K, 33823 kPa | 988.2
283.15 K, 33845 kPa | 988.1
283.15 K, 33867 kPa | 988.2
283.15 K, 33889 kPa | 988.2
283.15 K, 33915 kPa | 988.4
283.15 K, 33937 kPa | 988.3
283.15 K, 33959 kPa | 988.3
283.15 K, 33986 kPa | 988.2
283.15 K, 34008 kPa | 988.3
283.15 K, 34126 kPa | 988.4
283.15 K, 34154 kPa | 988.4
283.15 K, 34177 kPa | 988.3
283.15 K, 34205 kPa | 988.4
283.15 K, 34229 kPa | 988.5
283.15 K, 34255 kPa | 988.4
283.15 K, 34282 kPa | 988.4
283.15 K, 34314 kPa | 988.4
283.15 K, 34342 kPa | 988.4
283.15 K, 34371 kPa | 988.6
283.15 K, 34402 kPa | 988.5
283.15 K, 34407 kPa | 988.5
283.15 K, 34408 kPa | 988.5
283.15 K, 34409 kPa | 988.5
283.15 K, 34410 kPa | 988.5
283.16 K, 5633.2 kPa | 973.4
283.16 K, 22751 kPa | 982.8
283.16 K, 22773 kPa | 982.7
283.16 K, 22795 kPa | 982.6
283.16 K, 33086 kPa | 987.8
283.16 K, 33707 kPa | 988.2
283.16 K, 34030 kPa | 988.3
283.16 K, 34053 kPa | 988.3
283.16 K, 34080 kPa | 988.4
283.16 K, 34103 kPa | 988.3
303.14 K, 3768.3 kPa | 957.8
303.14 K, 3783 kPa | 957.7
303.14 K, 3800.7 kPa | 957.8
303.14 K, 3818.7 kPa | 957.7
303.14 K, 3833.9 kPa | 957.8
303.14 K, 3852.1 kPa | 957.7
303.14 K, 3867.4 kPa | 957.7
303.14 K, 3885.9 kPa | 957.9
303.14 K, 3920.2 kPa | 957.8
303.14 K, 3936.3 kPa | 957.8
303.14 K, 3956 kPa | 957.8
303.14 K, 3973 kPa | 957.8
303.14 K, 3988.9 kPa | 958
303.14 K, 4008.8 kPa | 957.9
303.14 K, 4024.9 kPa | 957.8
303.14 K, 4044.7 kPa | 957.9
303.14 K, 4060.9 kPa | 958
303.14 K, 4081.2 kPa | 957.9
